{
  "source": "patent US20150017665A1",
  "about": "“Peptides and Methods for Detecting MPO-ANCA” (The University of North Carolina at Chapel Hill, priority 2012, published 2015)",
  "molecules": {"B1": {"name": "digested CP: ceruloplasmin digested with plasmin in vitro to produce a 50 kD fragment (protein)", "chain": "SVPPSASHVAPTETFTYEWTVPKEVGPTNADPVCLAKMYYSAVEPTKDIFTGLIGPMKICKKGSLHANGRQKDVDKEFYLFPTVFDENESLLLEDNIRMFTTAPDQVDKEDEDFQESNKMHSMNGFMYGNQPGLTMCKGDSVVWYLFSAGNEADVHGIYFSGNTYLWRGERRDTANLFPQTSLTLHMWPDTEGTFNVECLTTDHYTGGMKQKYTVNQCRRQSEDSTFYLGERTYYIAAVEVEWDYSPQREWEKELHHLQEQNVSNAFLDKGEFYIGSKYKKVVYRQYTDSTFRVPVERKAEEEHLGILGPQLHADVGDKVKIIFKNMATRPYSIHAHGVQTESSTVTPTLPGETLTYVWKIPERSGAGTEDSACIPWAYYSTVDQVKDLYSGLIGPLIVCRRPYL"}},
  "key": {"[1]": {"system": "DR2 Tg mice", "test": "Actively induced anti-MPO associated glomerulonephritis (peptide immunization)", "format": "in vivo, mouse", "details": "for glomerular disease: day 28", "experimental": "DR2 Tg mice (Ooi et al., Proc. Natl. Acad. Sci. USA 109:E2615 (2012); Rich et al., Eur. J. Immunol. 34:1251 (2004)) were immunized s.c. with 3×100 μg of peptide antigen (OVA323-339, n=4 or MPO442-460, n=10) first in FCA then FIA on days 0, 7 and 14. Mice were culled on day 28.\nFor indirect immunofluorescence, ethanol fixed thioglycolate induced peritoneal neutrophils were cytospun onto slides, purified serum IgG (1 mg/ml) was applied for 20 minutes then anti-mouse IgG Ab was detected using FITC conjugated anti-mouse IgG Ab (Silenus) (Ooi et al., Proc. Natl. Acad. Sci. USA 109:E2615 (2012); Lock, J. Clin. Pathol. 47:4 (1994)). Albuminuria was assessed by ELISA (Bethyl Laboratories) and haematuria assessed by urine test strips (Combur) from a 24 hour urine sample. Blood urea nitrogen (BUN) was measured using standard laboratory methods on serum collected at the end of experiment. Glomerular abnormalities assessed, on […], PAS stained, formalin fixed, paraffin embedded sections (≧50 glomeruli/mouse), were thickening of the capillary walls and mesangial hypercellularity (Ooi et al., J. Am. Soc. Nephrol. 20:980 (2009)). Total glomerular cell nuclei were enumerated (≧20 glomeruli/mouse). Glomerular neutrophils were detected by immunoperoxidase staining of 6 μm thick, periodate lysine paraformaldehyde fixed, frozen kidney sections using anti-Gr-1 antibodies (RB6-8C5)."}, "[2]": {"system": "MPO-ANCA", "test": "Epitope excision MALDI-TOF/TOF MS of patient and healthy Ig with native MPO", "format": "binding", "parameters": "key: HC: Healthy control; Active disease; Remission", "details": "human Ig", "from_the_text": "Total immunoglobulin (IgG) was purified from sera using protein A/G PLUS-Agarose Reagent according to commercial protocol (Santa Cruz Biotechnology). Purified IgG was immobilized on CNBr-activated Sepharose 4B (GE Healthcare) in compact reaction columns (CRC, USB Corporation) and exposed to native MPO protein (MPO, Elastin Products Co, Inc) followed by digestion with sequencing grade TPCK-treated trypsin (Worthington). MPO-peptides remaining bound to IgG after digestion were eluted with 0.1% trifluoro acetic acid and analyzed on a 4800 Plus Matrix-Assisted Laser Desorption Ionization Time of Flight Mass Spectrometry (MALDI TOF/TOF MS/MS) in conjunction with ProteinPilot software (AB SCIEX).\nTo identify epitopes of low titer autoantibodies, ^18O labeling (Mirza et al., J. Proteome Res. 7:3042 (2008)) was used to differentiate between the signal and the noise in the MS and MSMS spectra using the 4 Da shifts between the corresponding spectra of labeled and non-labeled peptides. Mass spectrometry analysis for epitopes recognized by MPO autoantibodies from healthy individuals, and for detection of low ANCA titers in remission samples required the use of isotope H2^18O to increase sensitivity (Cambridge Isotope Laboratories). Samples from healthy individuals (n=10) and MPO-ANCA patients in clinical remission (n=35) were processed in the presence of H2^18O. Incorporation of H2^18O on the carboxyl terminus of each proteolytic fragment of MPO during tryptic digestion, trypsin buffer was made with the isotope H2^18O as a diluent.\nMPO-ANCA positive patients (n=45) from the University of North Carolina cohort (UNC) were analyzed in the initial studies. Demographics of the cohort (Table 2) indicate a predominantly Caucasian group. Approximately 40% are diagnosed with microscopic polyangiitis (MPA), 40% with renal-limited disease and 20% are diagnosed with granulomatosis with polyangiitis (GPA). To compare epitope specificities related to disease activity, longitudinal samples were analyzed to include active disease (n=52) and remission (n=35) from the UNC cohort (Tables 3 and 4). Ten healthy subjects were included in the analyses. Purified immunoglobulin (Ig) from sera samples was subjected to analysis by epitope excision MALDI-TOF/TOF mass spectrometry (depicted in FIG. 3A) to identify epitope profiles of autoantibodies reactive with MPO. In order to epitope map low titer anti-MPO antibodies from healthy subjects and from patients in disease remission, an approach was designed using the ^16O-to-^18O exchange technique, an adaptation of a proteomics-based quantification method (Mirza et al., J. Proteome Res. 7:3042 (2008)). Incorporation of H2^18O on the carboxyl termini of proteolytic fragments produces a 4 Da mass shift in the MS spectra, decipherable from background noise. MPO epitopes unique to Ig from patients with active disease were designated ‘exclusive to active disease’; epitopes identified in remission samples were designated ‘persistent during remission’; and those present in samples from healthy subjects were designated asymptomatic or ‘natural’."}, "[3]": {"system": "anti-MPO antibodies of immunized DR2 Tg mice", "test": "Epitope excision MS of IgG from immunized DR2 Tg mice with recombinant mouse MPO", "format": "binding", "details": "DR2 Tg mice immunized with MPO aa442-460", "experimental": "(§1) Mass spectrometry analysis of ANCA-negative IgG and mouse IgG samples were conducted as above. With the exception of protein substrate, immobilized ANCA-negative IgG were exposed to whole leukocyte lysate preparation from a healthy donor and mouse IgG to recombinant mouse MPO (R&D Systems).\nAs HLA-MHC II help shape the B and T cell repertoires, and consequently the response to foreign and self-antigens, we wanted to define the epitope specificity of the anti-MPO autoantibodies that could be induced experimentally using DR2 Tg mice. In this way, we could assess development of the anti-MPO antibody response after immunization of a single epitope in the context of a human MHC II. IgG from sera of immunized mice was profiled for anti-MPO epitope specificity using epitope excision MS. DR2 Tg mice developed antibodies targeting the human B cell epitope aa447-459 which is within a conserved region of both murine and human MPO. Unpredictably, immunized DR2 Tg mice initiated a polyclonal response producing autoantibodies against the entire MPO molecule. The epitope profile was astonishingly similar to that of the MPO-ANCA human profile (Table 6), indicative of the critical nature of this epitope."}, "[4]": {"system": "MPO-ANCA", "test": "Peptide ELISA with total IgG (Chapel Hill and Groningen)", "format": "binding, human", "details": "for MPO-ANCA specific for the epitope detected by ELISA, patients positive/tested: isolated Ig", "experimental": "A total of 195 IgG samples were tested by native MPO or peptide ELISA. Samples included those from healthy controls (n=59), active disease (n=80) and remission patients (n=56). Total IgG was added to wells (2 μg/well) precoated with 1-2 μg peptide (UNC-CH peptide synthesis core). Goat anti-human with alkaline phosphatase conjugate secondary antibody specific to IgG (H+L) (Millipore, Billerica, Mass.) (1:10,000) was added and detected using 1-Step PNPP substrate (Thermo Scientific) and read at λ=405 nm after 30 min. Identical peptides were used in ELISAs at both locations; all other substrates used to test NL cohort samples by ELISAs were prepared in Groningen. Total IgG (1:500˜2 mg/well) was added to precoated wells blocked with 1% BSA. Secondary antibody, goat anti-human conjugated with alkaline phosphatase (A5403; Sigma-Aldrich) (1:5000), was added and detected using p-nitrophenyl-phosphate disodium substrate."}, "[5]": {"system": "IgG from ANCA-negative AAV patients", "test": "Epitope excision MS of ANCA-negative IgG with whole leukocyte lysate", "format": "binding, human", "details": "total Ig from ANCA-negative AAV patients", "experimental": "as §1\nA variation of epitope excision MS for MPO-ANCA was adapted into a ‘discovery’ tool for identifying unknown autoantigens in ANCA-negative AAV, which presents clinically as vasculitis although with a negative serology for MPO-ANCA and PR3-ANCA. ANCA-negative AAV patients were identified by retrospective review of the medical records, with criteria of histological evidence of vasculitis and negative serological test results from the UNC Hospital clinical laboratory. As an additional measure, sera samples selected for analysis were retested for ANCA reactivity by the laboratory of Dr. John Niles, Massachusetts General Hospital, Boston, USA and were confirmed to be ANCA-negative. Protein lysate of total peripheral blood leukocytes were probed for antigen/s that were reactive with purified total Ig from ANCA-negative AAV patients' sera (FIG. 5A). […] MPO-ANCA specific for this epitope were detected by ELISA using isolated Ig from 8/10 UNC AAV patients and from 6/11 NL AAV patients (Table 2)."}, "[6]": {"system": "anti-MPO^447-459 autoantibody", "test": "Epitope masking ELISA with ceruloplasmin and its fragments", "format": "binding, human", "from_the_text": "Serum proteins that bound immobilized MPO peptide aa447-459 were eluted and sequenced for identification. […] Sequenced on a 4800 MALDI TOF-TOF, the protein was identified as ceruloplasmin (CP), and confirmed by western blot analysis probed with a rabbit anti-human anti-CP polyclonal antibody (Abeam). Native CP was purchased (Enzo Life Science) and proteolytically digested in vitro by plasmin (Haemtech).\n(§2) To isolate the putative serum factor, immobilized MPO aa447-459 peptide was used as bait to fish-out host proteins with binding capacity. […] However, the CP bound to aa447-459 was primarily a 50 kD protein on sodium dodecyl sulfate polyacrylamide gel electrophoresis (SDS-PAGE), while full length CP is 151 kD (FIG. 6D). An anti-ceruloplasmin western blot confirmed the fragment to be a portion of CP (FIG. 6E). To test the role of proteolytic cleavage in generating the blocking factor, a plasmin-generated fragment of CP (Kingston et al., Proc. Natl. Acad. Sci. USA 74:5377 (1977)) was tested for epitope masking capability (FIG. 6F)."}, "[7]": {"system": "MPO-ANCA IgG (polyclonal)", "test": "Effect of CP on binding of polyclonal MPO-ANCA Ig to native MPO (ELISA)", "parameters": "species or system human", "details": "MPO-ANCA IgG from four patients", "from_the_text": "as §2"}, "[8]": {"details": "compared with OVA aa323-339 immunized mice"}},
  "data": [
    {"molecule": "LYQEARKIVGAMVQIITYR (LYQEARKIVGAMVQITTYR; listed as Homo sapiens) [aa442-460]", "values": [
      {"measurement": "induction of MPO-reactive antibodies", "setting": "[1]; after 28 days", "result": "MPO-reactive antibodies after 28 days"},
      {"measurement": "BUN", "setting": "[1]; [8]", "result": "increased BUN values"},
      {"measurement": "albuminuria", "setting": "[1]; [8]", "result": "developed albuminuria"},
      {"measurement": "hematuria", "setting": "[1]; [8]", "result": "hematuria"},
      {"measurement": "glomerular disease", "setting": "[1]", "result": "mild glomerular proliferation"}
    ]},
    {"molecule": "RKIVGAMVQIITY (listed as Homo sapiens) [aa447-459]", "values": [
      {"measurement": "Found in samples: Healthy control, Active disease, or Remission, (HC, A, R)", "setting": "[2]; Table 1", "result": "A"},
      {"measurement": "Found in samples: Healthy control, Active disease, or Remission, (HC, A, R)", "setting": "[2]; Table 6", "result": "A"},
      {"measurement": "Epitopes found in immunized mice", "setting": "[3]", "result": "RKIVGAMVQIITY"},
      {"measurement": "level of ELISA reactivity versus disease activity", "setting": "[4]; ANCA-negative patients, UNC (n=4) and NL (n=5), longitudinal", "result": "corresponded well with disease activity, declining to low levels as patients entered disease remission"},
      {"measurement": "share of MPO-ANCA positive AAV patients with active disease in whom the epitope was identified", "setting": "[4]; MPO-ANCA positive AAV, active disease", "result": "~50", "unit": "%"},
      {"measurement": "reactivity by ELISA, share of patient samples", "setting": "[4]; NL population, active disease", "result": 52.2, "unit": "%"},
      {"measurement": "reactivity by ELISA, share of patient samples", "setting": "[4]; UNC MPO-ANCA patient samples, active disease", "result": 42.9, "unit": "%"},
      {"measurement": "ELISA reactivity in clinical remission", "setting": "[4]; UNC and NL cohorts, remission samples", "result": "Reactivity declined in clinical remission"},
      {"measurement": "MPO-ANCA specific for the epitope detected by ELISA, patients positive/tested", "setting": "[4]; ANCA-negative NL AAV patients", "result": "6/11"},
      {"measurement": "MPO-ANCA specific for the epitope detected by ELISA, patients positive/tested", "setting": "[4]; ANCA-negative UNC AAV patients", "result": "8/10"},
      {"measurement": "peptide eluted from ANCA-negative Ig (MS)", "setting": "[5]", "result": "A sole peptide was eluted and identified"},
      {"measurement": "glomerular disease", "setting": "[1]", "result": "develop glomerulonephritis"}
    ]},
    {"molecule": "thrombin [reference compound]", "values": [
      {"measurement": "generation of a functional (blocking) ceruloplasmin fragment by serum proteases", "setting": "[6]", "result": "did not"}
    ]},
    {"molecule": "urokinase [reference compound]", "values": [
      {"measurement": "generation of a functional (blocking) ceruloplasmin fragment by serum proteases", "setting": "[6]", "result": "produced a functional fragment"}
    ]},
    {"molecule": "B1", "values": [
      {"measurement": "decrease of anti-MPO^447-459 autoantibody reactivity", "setting": "[6]; ELISA, n=8", "result": "30-50%"},
      {"measurement": "effect on binding of polyclonal MPO-ANCA Ig to native MPO", "setting": "[7]", "result": "did not affect the overall binding"}
    ]}
  ]
}
